Assays:
Assay type in all cases: physicochemical
[1] = Storage stability of photo-recording material (60° C., 200 hours, light-shielded); details: (density after storage/initial density)×100, packed with black paper
Source text: The binder resin composition containing the photo-decoloring dye used for making sample 3-1 was coated on a polyethylenenaphthalate base having thickness of 4.0 μm by using a wire bar in a coating amount of 2.5 g/m^2 after drying so as to obtain a photo-recording material consisting of a photo-decoloring layer on the polyethylenenaphthalate film. On a back side of said polyethylenenaphthalate base was coated a nitrocellulose layer containing a silicone modified urethane resin (SP-2105, produced by Dainichiseika Co., Ltd.) as a sticking-preventing layer. Thus obtained sample is termed sample 4-1.
By replacing the photo-decoloring dye 7 used in sample 4-1 by such photo-decoloring dyes as described later, sample 4-2 to 4-16 were obtained. Both photo-decoloring ability and storage stability of these dyes were evaluated.
Photo-shielded samples by packing them with black paper were allowed to stand at 60° C. in a thermostatic oven for 200 hours. Storage stability was indicated as follows.
Storage stability=(density after storage/initial density)×100 (%)

[2] = Solubility of dye in binder resin composition (polyvinyl butyral / methyl ethyl ketone), precipitation after a day at 15° C.; details: binder resin composition: polyvinyl butyral resin (Esrex BX-1) 100 mg, methyl ethyl ketone 3.0 ml; stood a day at 15° C. shielded from light
Description: Mixing the following raw materials, a binder resin composition containing the photo-decoloring dye was prepared so as to obtain sample 3-1.
Photo-decoloring dye 7 0.3 mmol
Polyvinyl butyral resin (Esrex BX-1)
Methyl ethyl ketone 3.0 ml
Samples 3-2 to 3-12 were obtained in the same way in which sample 3-1 was obtained except replacing the photo-decoloring dye 7 by the following dyes described later. Solubility was evaluated by varying addition amount of each dye. The dyes except for comparative dyes show the photo-decoloring dyes according to the invention. The chemical structures of the comparative dyes A and B (these dyes are used in example 5) are shown below.
After preparing binder resin compositions in which addition amount of the photo-decoloring dyes was increased in serial turn, said binder resin compositions were aloowed to stand under the condition of shielding a light for a day at 15° C. When slight precipitation of the photo-decoloring dyes in said binder resin compositions was observed, the solubility of said photo-decoloring dyes was evaluated as unacceptable.
The solubility of the photo-decoloring dyes was evaluated based on the following criteria in response to the addition amount of said photo-decoloring dyes.
4: Precipitation was not observed in an addition amount of not less than 0.9 mmol.

[3] = Absorption maximum and absorption coefficient in ethyl acetate

SMILES: CN1/C(=C\C=C\C2=[N+](C)c3ccccc3C2(C)C)C(C)(C)c2ccccc21 [F]
- Storage stability [1]: 15%

SMILES: CCCCc1nnc2n1N=C(C(C)(C)C)C2=Nc1ccc(O)cc1 [A]
- Solubility [2]: 2 (Slight precipitation was observed in an addition amount of not less than 0.3 to less than 0.6 mmol.)
- Storage stability [1]: 18%

SMILES: CCCCCCCCCCCCS(=O)(=O)CCCc1nnc2c(=Cc3cc(Cl)c(O)c(Cl)c3)c(C(C)(C)C)nn12 [compound 78]
- εmax [3]: 94800
- λmax [3]: 543 nm

SMILES: CCCCc1nnc2c(=Cc3cc(Cl)c(O)c(Cl)c3)c(C(C)(C)C)nn12 [B]
- Solubility [2]: 2 (Slight precipitation was observed in an addition amount of not less than 0.3 to less than 0.6 mmol.)
- Storage stability [1]: 20%

SMILES: CCC(Oc1ccc(C(C)(C)CC)cc1C(C)(C)CC)C(=O)NCCC(C)c1nnc2n1N=C(C(C)(C)C)C2=Nc1cc(Cl)c(O)c(Cl)c1 (stereo not drawn) [compound 11]
- Solubility [2]: 4 (Precipitation was not observed in an addition amount of not less than 0.9 mmol.)
- Storage stability [1]: 80%

SMILES: CCCCCCCCCCCCS(=O)(=O)NCCc1nc2c(=Cc3cc(Cl)c(O)c(Cl)c3)c(C(C)(C)C)nn2n1 [compound 47]
- Solubility [2]: 4 (Precipitation was not observed in an addition amount of not less than 0.9 mmol.)
- Storage stability [1]: 82%

SMILES: CCCCC(Oc1ccc(C(C)(C)CC)cc1C(C)(C)CC)C(=O)Nc1ccc2nc3n(c2c1)N=C(C)C3=Nc1cc(Cl)c(O)c(Cl)c1 (stereo not drawn) [compound 32]
- Solubility [2]: 3 (Slight precipitation was observed in an addition amount of not less than 0.6 to less than 0.9 mmol.)
- Storage stability [1]: 90%

SMILES: CCCCCCCCCCCCC(Oc1ccc(OC(C)=O)c(C(C)(C)C)c1)C(=O)NCCc1nnc2n1N=C(C)C2=Nc1cc(Cl)c(O)c(Cl)c1 (stereo not drawn) [compound 17]
- Solubility [2]: 4 (Precipitation was not observed in an addition amount of not less than 0.9 mmol.)
- Storage stability [1]: 85%

SMILES: CCCCCCCCCCCCS(=O)(=O)CCCc1nnc2c(=Cc3cc(Cl)c(O)c(Cl)c3)c(C(C)(C)C)nn12 [compound 58]
- Solubility [2]: 4 (Precipitation was not observed in an addition amount of not less than 0.9 mmol.)
- εmax [3]: 105300
- λmax [3]: 540 nm
- Storage stability [1]: 80%

SMILES: CCN(CC)c1ccc(N=C2C=CC(=O)c3ccccc32)cc1 [E]
- Storage stability [1]: 85%

SMILES: CCN(CC)c1ccc(N=C(C(C)=O)C(=O)Nc2ccccc2)c(C)c1 [C]
- Storage stability [1]: 95%

SMILES: CCCCCCCCCCCCOc1ccc(S(=O)(=O)NCC(C)(C)c2nnc3n2N=C(C(C)(C)C)C3=Nc2cc(Cl)c(O)c(Cl)c2)cc1 [compound 13]
- Solubility [2]: 3 (Slight precipitation was observed in an addition amount of not less than 0.6 to less than 0.9 mmol.)
- Storage stability [1]: 75%

SMILES: CCC(C)(C)c1ccc(OCC(=O)Nc2ccnc(-c3cnc4n3N=C(C(C)(C)C)C4=Nc3cc(Cl)c(O)c(Cl)c3)c2)c(C(C)(C)CC)c1 [compound 33]
- Solubility [2]: 4 (Precipitation was not observed in an addition amount of not less than 0.9 mmol.)
- Storage stability [1]: 77%

SMILES: CCN(CC)c1ccc(N=C2C(=O)N(c3ccccc3)N=C2C)cc1 [D]
- Storage stability [1]: 80%

SMILES: CCCCCCCCCCCCS(=O)(=O)CCCc1nnc2n1N=C(C(C)(C)C)C2=Nc1cc(Cl)c(O)c(Cl)c1 [compound 7]
- Solubility [2]: 4 (Precipitation was not observed in an addition amount of not less than 0.9 mmol.)
- εmax [3]: 93700
- λmax [3]: 556 nm
- Storage stability [1]: 88%
